The results in this text go back to article PMC8092209, “Structural Basis of Ligand Selectivity by a Bacterial Adhesin Lectin Involved in Multispecies Biofilm Formation” (mBio, 2021).

Common to all, as to format: binding
The target of assay [1] is T1, MpPA14 (Marinomonas primoryensis, UniProt A1YIY3). The experiment in a line: Dextran-based comparative competition assay (MpPA14). The text has this: To gain insight into the binding specificity of MpPA14, we investigated the relative affinity of various monosaccharides for the lectin by a comparative competition assay ([12]). MpPA14 bound to Superdex resin was competitively released into solution by the progressive addition of free sugars. The released protein concentrations measured by absorbance at 280 nm were plotted as a function of free sugar concentration to produce semiquantitative binding curves (Fig. 1A and B). The apparent dissociation constant (Kdapp) calculated from these binding curves was used as a relative measure of affinity for each assayed sugar (Table 1). […] D-Ribose bound […] more strongly than its derivative 2-deoxy-D-ribose (Kdapp of 6.8 mM as opposed to 18 mM; Fig. 1B and Table 1).
T1 sequence (A1YIY3 entry or part of it): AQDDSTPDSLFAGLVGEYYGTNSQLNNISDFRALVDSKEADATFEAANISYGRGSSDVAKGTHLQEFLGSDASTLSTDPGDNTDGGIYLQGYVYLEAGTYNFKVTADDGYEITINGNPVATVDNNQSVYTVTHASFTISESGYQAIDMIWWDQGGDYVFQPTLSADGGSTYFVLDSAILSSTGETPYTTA
The dextran resin competition assay was performed as previously described for MhPA14 ([12]). Briefly, Superdex 200 (S200) resin was washed twice with 50 mM Tris-HCl (pH 9), 150 mM NaCl, and 5 mM CaCl2. One ml of 1 mg/ml MpPA14 with green fluorescent protein (GFP) fused to its N terminus (GFP-MpPA14) or VcPA14 labeled with FITC was suspended with 300 μl of equilibrated Superdex 200 (S200) resin. Following an incubation period with gentle mixing, the S200 resin bound with GFP-MpPA14 was pelleted by centrifugation. The pellet was washed twice with 50 mM Tris-HCl (pH 9), 150 mM NaCl, and 5 mM CaCl2, and the A280 of the supernatant from the second wash was used as the baseline reading. Next, after resuspension in the same buffer, aliquots of 1.67 μmol saccharide were sequentially added to the solution six or seven times, with the A280 of the supernatant being measured after each addition to quantify the release of lectin. The final addition of saccharide was […]. Data from the dextran affinity assay were plotted using GraphPad Prism after subtracting the background. Next, the data were fitted to a nonlinear regression of one-site-specific binding, which follows the model y/Bmax = x/(Kd + x), with Bmax as the maximum specific binding and Kd as the equilibrium binding constant.

Assay [2] has as its target T1, MpPA14. The experiment in a line: Second glycan array (32 polysaccharides, Max Planck Institute for Marine Microbiology). The settings on record: for Binding of MpPA14 (RFUs): normalized signal intensity, maximal mean set to 100, cutoff of 5. The source says:
To expand the repertoire of glycans beyond glucans and mannans, we performed a second focused microarray composed of 32 polysaccharides found in microbes such as fungi and bacteria, as well as in macroalgae and plants (Fig. 4B). […] In addition, MpPA14 interacted avidly with fucoidans from macroalgae. […] This conformer is not present in the arabinan polymer composed of 1,5-linked α-L-arabino-furanoses, which are then not free to transition to the pyranose form. Similarly, since the MpPA14 binds galactose via the 1,2-diol (β-anomer) (Fig. 3H), the lectin cannot interact with galactans, as they are polymers of β-1,4-D-galactose (Fig. 4B and Table S5).
The second glycan array was performed at the Max Planck Institute for Marine Microbiology (Bremen, Germany). The array contained duplicates of 32 polysaccharides, including those from macroalgae, bacteria, fungi, and land plants (see details in Table S5 in the supplemental material). N-terminally His-tagged MpPA14 was incubated with the array, and binding of the lectin to the polysaccharides was detected by an anti-His tag secondary antibody conjugated to alkaline phosphatase (Sigma-Aldrich). Microarray probing and quantification were performed as previously described ([45]). Maximal mean (average of the duplicates) signal intensity was set to 100, and the rest of values were normalized accordingly. A cutoff of 5 was applied ([58]).

In assay [3] the target is T1, MpPA14. The experiment in a line: First glycan array (fungal, bacterial and plant polysaccharide array set 2, Imperial College). The settings on record: for binding to MpPA14 in first glycan array (in words): GFP-MpPA14; for Binding of MpPA14 (RFUs): GFP-MpPA14 50 μg/ml, Alexa Fluor 647 anti-GFP antibody, mean of duplicates.

Where “and” joins values, the source holds several entries; their conditions need not be identical. Equal values may be shown once.

In general, Kd refers to the free concentration of one partner at which half of the binding sites on the other are occupied at equilibrium, for simple one-to-one binding. A higher Kd goes with weaker binding. The compound `OC1OC[C@H](O)[C@H](O)[C@H]1O` (mixture of isomers) [L-Arabinose] gave a Kd at MpPA14 [1] of 2200 µM.
`O=CC[C@@H](O)[C@H](O)[C@H](O)CO` [2-Deoxy-glucose, 2-deoxy-glucose]: the Kd at MpPA14 [1] is 1370 µM and 1400 µM.
For `O=CC[C@H](O)[C@H](O)CO` [2-Deoxy-ribose, 2-deoxy-D-ribose], the affinity at MpPA14 [1], expressed as Kd, was 18000 µM. That is a millimolar value.
With Alginate, on MpPA14 [2], the “Binding of MpPA14 (RFUs)” value turned out to be 22 RFUs.
Turning to Arabinoxylan, the “Binding of MpPA14 (RFUs)” value at MpPA14 [2] is 0 RFUs.
For “Carboxymethyl cellulose (β-(1→4)-D-glucan)”, the “Binding of MpPA14 (RFUs)” value on MpPA14 [2] was 28 RFUs.
For the compound Curdlan (β-(1→3)-D-glucan), at MpPA14 [3], the “binding to MpPA14 in first glycan array (in words)” value is “negligible or no detectable binding” and the “Binding of MpPA14 (RFUs)” value is reported as 167 RFUs.
Taken in the same sequence, the figures for Dextran (α-(1→6)-D-glucan backbone) were “bound most avidly” and 41390 RFUs.
Consider “Fucoidan [Fucoidan (Ascophyllum nodosum)]”, for which, on MpPA14 [2], the “binding to MpPA14 in second glycan array (in words)” value is on record as “strongest MpPA14-binding fucoidans” and the “Binding of MpPA14 (RFUs)” value was found to be 77 RFUs.
As to Fucoidan [Fucoidan (Cladosiphon)], at MpPA14 [2], the “binding to MpPA14 in second glycan array (in words)” value was “strongest MpPA14-binding fucoidans” and the “Binding of MpPA14 (RFUs)” value stood at 100 RFUs.
On to Fucoidan [Fucoidan (Fucus serratus)], for which the “Binding of MpPA14 (RFUs)” value at MpPA14 [2] was found to be 53 RFUs.
Consider Fucoidan [Fucoidan (Fucus vesiculosus)], for which, at MpPA14 [2], the “Binding of MpPA14 (RFUs)” value is reported as 29 RFUs.
Turning to Fucoidan [Fucoidan (Laminaria)], the “Binding of MpPA14 (RFUs)” value on MpPA14 [2] is 69 RFUs.
Take Fucoidan [Fucoidan (Sargassum)]: on MpPA14 [2], the “binding to MpPA14 in second glycan array (in words)” value is on record as “strongest MpPA14-binding fucoidans” and the “Binding of MpPA14 (RFUs)” value came out at 84 RFUs.
GN6-AO (chitin, β-1→4-GlcNAc): at MpPA14 [3], the “binding to MpPA14 in first glycan array (in words)” value is reported as “negligible or no detectable binding” and the “Binding of MpPA14 (RFUs)” value was 178 RFUs.
Regarding Galactofucan, the “Binding of MpPA14 (RFUs)” value on MpPA14 [2] came out at 40 RFUs.
For “Galactomannan (β-(1→4)-D-mannan backbone)”, at MpPA14 [2], the “binding to MpPA14 in second glycan array (in words)” value is recorded as “did not bind” and the “Binding of MpPA14 (RFUs)” value came out at 0 RFUs.
“Glucomannan (β-(1→4)-D-mannose and D-glucose backbone)”: the “Binding of MpPA14 (RFUs)” value on MpPA14 [2] amounted to 0 RFUs.
With “Glucurono-XyloMannan (α-(1→3)-Mannan with Xyl, GlcA and Fuc branches)”, the “Binding of MpPA14 (RFUs)” value at MpPA14 [2] turned out to be 0 RFUs. Further, on MpPA14 [3], the “binding to MpPA14 in first glycan array (in words)” value is reported as “negligible or no detectable binding” and the “Binding of MpPA14 (RFUs)” value is listed as 75 RFUs.
For the compound “Grifolan (β-(1→3)-D-glucan backbone, highly branched oligomers)”, on MpPA14 [3], the “binding to MpPA14 in first glycan array (in words)” value was “bound most avidly” and the “Binding of MpPA14 (RFUs)” value was 39935 RFUs.
As to “Laminarin (β-(1→3)-D-glucan backbone with 1→6 branches) [Laminarin (Eisenia bicyclis)]”, the “Binding of MpPA14 (RFUs)” value on MpPA14 [2] amounted to 39 RFUs.
With “Laminarin (β-(1→3)-D-glucan backbone with 1→6 branches) [Laminarin (Laminaria digitata)]”, the “Binding of MpPA14 (RFUs)” value at MpPA14 [2] is 41 RFUs.
As for “Lentinan (β-(1→3)-D-glucan backbone, β-(1→3)-D-glucan branches)”, on MpPA14 [3], the “binding to MpPA14 in first glycan array (in words)” value was “bound most avidly” and the “Binding of MpPA14 (RFUs)” value turned out to be 41060 RFUs.
Consider “Lichenan (β-(1→3)(1→4)-D-glucan) [Lichenan (Icelandic moss)]”, for which the “Binding of MpPA14 (RFUs)” value at MpPA14 [2] came to 44 RFUs.
Regarding “Lichenan Mixed β-(1→3)/β-(1→4)-D-glucan [Lichenan (Lichen)]”, the “Binding of MpPA14 (RFUs)” value at MpPA14 [3] amounted to 349 RFUs.
As for “Mannan (α-(1→6)-D-mannan backbone, α-(1→2)-,α-(1→3)-mannan branches) [Mannan (Saccharomyces cerevisiae)]”, at MpPA14 [2], the “binding to MpPA14 in second glycan array (in words)” value is “no detectable interaction” and the “Binding of MpPA14 (RFUs)” value was found to be 0 RFUs. In addition, on MpPA14 [3], the “binding to MpPA14 in first glycan array (in words)” value was “weak binding” and the “Binding of MpPA14 (RFUs)” value worked out at 3808 RFUs.
“Mannan (β-(1→4)-D-mannan) [Mannan (Ivory nut)]”: the “Binding of MpPA14 (RFUs)” value at MpPA14 [2] was 15 RFUs.
With Mannoprotein (mannose rich), on MpPA14 [3], the “binding to MpPA14 in first glycan array (in words)” value is on record as “negligible or no detectable binding” and the “Binding of MpPA14 (RFUs)” value was 0 RFUs.
As for “N -Mannoprotein (α-1→6-mannan backbone with oligomeric α-(1→2)-, α-(1→3)-, and β-(1→2)-mannan branches”, on MpPA14 [3], the “binding to MpPA14 in first glycan array (in words)” value is on record as “moderate lectin-glycan interactions” and the “Binding of MpPA14 (RFUs)” value was determined as 17438 RFUs.
As to “NSG (β-(1→3)-D-glucan backbone, β-(1→3)-D-glucan branches)”, on MpPA14 [3], the “Binding of MpPA14 (RFUs)” value is recorded as 2319 RFUs.
As to “PGPGG (β-(1→3)-D-glucan backbone, β-(1→3)-D-glucan branches)”, at MpPA14 [3], the “Binding of MpPA14 (RFUs)” value is reported as 30143 RFUs.
With “Pachyman (β-(1→3)-D-glucan backbone with 1→6 branches)”, on MpPA14 [2], the “binding to MpPA14 in second glycan array (in words)” value was “significant binding” and the “Binding of MpPA14 (RFUs)” value is 75 RFUs.
For Partially acetylated alginate, on MpPA14 [2], the “Binding of MpPA14 (RFUs)” value was 0 RFUs.
Take “Polygalacturonic acid (α-(1→4)-D-galacturonic acid)”: on MpPA14 [2], the “Binding of MpPA14 (RFUs)” value stood at 0 RFUs.
With Porphyran, at MpPA14 [2], the “binding to MpPA14 in second glycan array (in words)” value is “did not bind” and the “Binding of MpPA14 (RFUs)” value is given as 0 RFUs.
For Pullulan (α-(1→4)(1→6)-D-glucan), the figures for the “Binding of MpPA14 (RFUs)” value on MpPA14 [2] and at MpPA14 [3] were 37 RFUs and 58106 RFUs, respectively. The “binding to MpPA14 in first glycan array (in words)” value on MpPA14 [3] is “bound most avidly”.
For “Pustulan (β-(1→6)-D-glucan) [Pustulan (Lasallia pustulata)]”, at MpPA14 [2], the “binding to MpPA14 in second glycan array (in words)” value is “significant binding” and the “Binding of MpPA14 (RFUs)” value was 86 RFUs.
For “Pustulan (β-(1→6)-D-glucan) [Pustulan (Umbilicaria papullosa)]”, the “Binding of MpPA14 (RFUs)” value on MpPA14 [3] amounted to 1565 RFUs.
For the compound Rhamnogalacturonan I, the “Binding of MpPA14 (RFUs)” value on MpPA14 [2] is recorded as 0 RFUs.
In the case of “Scleroglucan (β-(1→3)-D-glucan backbone with 1→6 branches)”, on MpPA14 [2], the “binding to MpPA14 in second glycan array (in words)” value is listed as “significant binding” and the “Binding of MpPA14 (RFUs)” value amounted to 65 RFUs.
For Ulvan, the “Binding of MpPA14 (RFUs)” value on MpPA14 [2] came to 34 RFUs.
Turning to Xyloglucan, at MpPA14 [2], the “binding to MpPA14 in second glycan array (in words)” value was “did not bind” and the “Binding of MpPA14 (RFUs)” value came to 0 RFUs.
With α-(1→5)-L-arabinan, on MpPA14 [2], the “binding to MpPA14 in second glycan array (in words)” value was “did not bind” and the “Binding of MpPA14 (RFUs)” value amounted to 0 RFUs.
For the compound β-(1→4)-D-galactan, at MpPA14 [2], the “binding to MpPA14 in second glycan array (in words)” value is on record as “did not bind” and the “Binding of MpPA14 (RFUs)” value is on record as 0 RFUs.
Take β-(1→4)-D-xylan: at MpPA14 [2], the “binding to MpPA14 in second glycan array (in words)” value is “did not bind” and the “Binding of MpPA14 (RFUs)” value is recorded as 0 RFUs.
“β-glucan Mixed β-(1→3)/β-(1→4)-D-glucan [β-glucan (Barley)]”: the “Binding of MpPA14 (RFUs)” value on MpPA14 [2] came out at 0 RFUs. Also, on MpPA14 [3], the “binding to MpPA14 in first glycan array (in words)” value is listed as “negligible or no detectable binding” and the “Binding of MpPA14 (RFUs)” value was 23 RFUs.
As for “β-glucan Mixed β-(1→3)/β-(1→4)-D-glucan [β-glucan (Oat)]”, at MpPA14 [3], the “binding to MpPA14 in first glycan array (in words)” value was “negligible or no detectable binding” and the “Binding of MpPA14 (RFUs)” value is 0 RFUs.
